Measured values reported in patent US20260184725A1, “CYCLIC 2-AMINOPYRIMIDINE COMPOUND AND PHARMACEUTICAL COMPOSITION AND USE THEREOF” (SHANGHAI INSTITUTE OF ORGANIC CHEMISTRY, CHINESE ACADEMY OF …, priority 2023, published 2026).

Assays:
Type in all cases: biochemical
EGFR^19del/T790M/C797S = molecular target: T1, EGFR^19del/T790M/C797S (Homo sapiens, UniProt P00533, T790M/C797S, form not given); assay: ELISA kinase activity inhibition, EGFR 19del/T790M/C797S; conditions: ATP 5 μM, read-out: The average IC50 value (nM) for inhibiting the activity of different tyrosine kinases, EGFR^19del/T790M/C797S
T1 construct: fused on or other part: Probably a GST tag on the cytoplasmic fragment, as in the vendor's product
Description: (§1) EGFR (WT) is a wild-type epidermal growth factor receptor.
(§2) Enzyme-Linked Immunosorbent Assay (ELISA) was used to detect the inhibitory effect of compounds on kinase activity.
(§3) The main experimental steps were as follows: Enzyme reaction substrate Poly (Glu, Tyr)4:1 was diluted with potassium free PBS (10 mM sodium phosphate buffer, 150 mM NaCl, pH 7.2-7.4) to 20 μg/mL, and reacted at 37° C. for 12 hours to 16 hours to coat the enzyme-linked immunosorbent assay plate. ATP solution (final concentration 5 μM) diluted with reaction buffer (50 mM HEPES pH 7.4, 50 mM MgCl2, 0.5 mM MnCl2, 0.2 mM Na3VO4, 1 mM DTT) was added to each well, followed by the test compound or solvent control, then the kinase reaction was initiated and the plate was shaken at 37° C. for 1 hour. The plate was washed three times with T-PBS, then added antibody PY99. The plate was shaken at 37° C. for 0.5 hours. After washing the plate with T-PBS, added horseradish peroxidase-labeled IgG and shaken at 37° C. for 0.5 hours. After washing the plate again, added 2 mg/mL of OPD colorimetric solution and incubated at 25° C. in the dark for 1 minutes to 10 minutes. […] The IC50 values were obtained from the inhibition curve analysis.

EGFR^WT = molecular target: T2, EGFR^WT (Homo sapiens, UniProt P00533); assay: ELISA kinase activity inhibition, wild-type EGFR; conditions: ATP 5 μM, read-out: The average IC50 value (nM) for inhibiting the activity of different tyrosine kinases, EGFR^WT
T2 construct: purchased Eurofins
Description: as §1, §2, §3

EGFR^L858R/T790M/C797S = EGFR^L858R/T790M/C797S (Homo sapiens, UniProt P00533, C797S/L858R/T790M); assay: ELISA kinase activity inhibition, EGFR L858R/T790M/C797S; conditions: ATP 5 μM, read-out: The average IC50 value (nM) for inhibiting the activity of different tyrosine kinases, EGFR^L858R/T790M/C797S
Description: as §2, §3

T1 sequence (P00533 with tags, fused parts or gaps DEL746-750/T790M/C797S, form open): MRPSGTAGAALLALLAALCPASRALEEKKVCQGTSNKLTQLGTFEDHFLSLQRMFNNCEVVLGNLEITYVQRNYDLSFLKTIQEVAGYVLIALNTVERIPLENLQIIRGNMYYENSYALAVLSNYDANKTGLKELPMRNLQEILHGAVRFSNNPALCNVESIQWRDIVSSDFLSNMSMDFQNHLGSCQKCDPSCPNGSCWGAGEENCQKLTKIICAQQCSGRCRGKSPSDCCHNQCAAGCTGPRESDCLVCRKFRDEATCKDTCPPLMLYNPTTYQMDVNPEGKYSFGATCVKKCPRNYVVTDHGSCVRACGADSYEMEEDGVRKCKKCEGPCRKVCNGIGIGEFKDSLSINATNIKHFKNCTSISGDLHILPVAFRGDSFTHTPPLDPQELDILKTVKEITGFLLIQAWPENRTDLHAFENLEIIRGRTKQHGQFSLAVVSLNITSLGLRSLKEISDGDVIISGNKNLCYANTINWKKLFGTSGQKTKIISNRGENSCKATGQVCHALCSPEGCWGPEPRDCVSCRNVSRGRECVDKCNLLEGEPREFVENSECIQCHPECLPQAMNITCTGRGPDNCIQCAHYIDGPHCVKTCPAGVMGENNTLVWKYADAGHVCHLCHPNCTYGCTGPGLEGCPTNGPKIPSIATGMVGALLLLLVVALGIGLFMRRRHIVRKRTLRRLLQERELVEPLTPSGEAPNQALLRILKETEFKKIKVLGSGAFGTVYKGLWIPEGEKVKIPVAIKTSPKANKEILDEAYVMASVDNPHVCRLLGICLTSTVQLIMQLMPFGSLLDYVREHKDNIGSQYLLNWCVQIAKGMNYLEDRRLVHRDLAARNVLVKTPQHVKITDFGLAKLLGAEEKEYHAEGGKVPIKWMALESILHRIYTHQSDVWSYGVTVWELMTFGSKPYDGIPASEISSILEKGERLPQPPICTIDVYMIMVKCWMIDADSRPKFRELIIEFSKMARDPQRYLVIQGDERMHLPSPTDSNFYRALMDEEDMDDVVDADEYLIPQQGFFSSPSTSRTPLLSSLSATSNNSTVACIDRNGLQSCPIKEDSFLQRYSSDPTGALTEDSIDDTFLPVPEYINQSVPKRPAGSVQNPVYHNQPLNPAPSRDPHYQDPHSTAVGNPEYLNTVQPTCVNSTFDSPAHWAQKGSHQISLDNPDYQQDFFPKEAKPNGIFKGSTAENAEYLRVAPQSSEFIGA
EGFR^L858R/T790M/C797S, sequence (P00533 25-1210 T790M/C797S/L858R): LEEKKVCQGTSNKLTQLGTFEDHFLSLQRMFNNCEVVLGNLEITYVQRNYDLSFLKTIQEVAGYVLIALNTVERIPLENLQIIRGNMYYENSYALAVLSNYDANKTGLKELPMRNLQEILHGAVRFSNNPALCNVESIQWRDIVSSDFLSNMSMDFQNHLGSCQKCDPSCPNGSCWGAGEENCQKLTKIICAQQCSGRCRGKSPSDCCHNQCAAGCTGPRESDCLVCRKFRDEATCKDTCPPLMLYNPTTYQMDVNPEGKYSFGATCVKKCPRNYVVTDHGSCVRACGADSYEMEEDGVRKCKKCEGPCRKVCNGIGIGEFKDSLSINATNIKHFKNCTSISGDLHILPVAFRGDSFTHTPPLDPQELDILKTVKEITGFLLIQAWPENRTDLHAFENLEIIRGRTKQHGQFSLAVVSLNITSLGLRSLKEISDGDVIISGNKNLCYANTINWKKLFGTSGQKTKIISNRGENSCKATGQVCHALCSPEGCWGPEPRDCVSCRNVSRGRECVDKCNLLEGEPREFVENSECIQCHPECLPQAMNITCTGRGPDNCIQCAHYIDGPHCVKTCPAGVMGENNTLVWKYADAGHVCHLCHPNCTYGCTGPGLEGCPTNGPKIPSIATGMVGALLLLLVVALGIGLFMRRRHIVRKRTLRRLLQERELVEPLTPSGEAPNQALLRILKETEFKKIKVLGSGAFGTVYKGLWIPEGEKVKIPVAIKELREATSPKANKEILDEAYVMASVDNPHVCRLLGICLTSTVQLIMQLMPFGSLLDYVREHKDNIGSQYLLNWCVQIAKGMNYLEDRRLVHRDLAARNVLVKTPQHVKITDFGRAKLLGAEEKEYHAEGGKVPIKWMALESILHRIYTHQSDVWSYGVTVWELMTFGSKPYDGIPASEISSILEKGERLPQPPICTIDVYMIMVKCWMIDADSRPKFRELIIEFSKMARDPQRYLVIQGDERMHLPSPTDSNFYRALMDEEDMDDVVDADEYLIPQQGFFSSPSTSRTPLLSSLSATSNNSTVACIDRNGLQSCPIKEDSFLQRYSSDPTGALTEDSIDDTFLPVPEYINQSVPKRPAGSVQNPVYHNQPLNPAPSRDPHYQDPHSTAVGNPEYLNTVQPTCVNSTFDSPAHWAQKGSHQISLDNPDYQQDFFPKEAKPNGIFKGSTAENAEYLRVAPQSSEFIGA
T2 sequence (P00533 25-1210): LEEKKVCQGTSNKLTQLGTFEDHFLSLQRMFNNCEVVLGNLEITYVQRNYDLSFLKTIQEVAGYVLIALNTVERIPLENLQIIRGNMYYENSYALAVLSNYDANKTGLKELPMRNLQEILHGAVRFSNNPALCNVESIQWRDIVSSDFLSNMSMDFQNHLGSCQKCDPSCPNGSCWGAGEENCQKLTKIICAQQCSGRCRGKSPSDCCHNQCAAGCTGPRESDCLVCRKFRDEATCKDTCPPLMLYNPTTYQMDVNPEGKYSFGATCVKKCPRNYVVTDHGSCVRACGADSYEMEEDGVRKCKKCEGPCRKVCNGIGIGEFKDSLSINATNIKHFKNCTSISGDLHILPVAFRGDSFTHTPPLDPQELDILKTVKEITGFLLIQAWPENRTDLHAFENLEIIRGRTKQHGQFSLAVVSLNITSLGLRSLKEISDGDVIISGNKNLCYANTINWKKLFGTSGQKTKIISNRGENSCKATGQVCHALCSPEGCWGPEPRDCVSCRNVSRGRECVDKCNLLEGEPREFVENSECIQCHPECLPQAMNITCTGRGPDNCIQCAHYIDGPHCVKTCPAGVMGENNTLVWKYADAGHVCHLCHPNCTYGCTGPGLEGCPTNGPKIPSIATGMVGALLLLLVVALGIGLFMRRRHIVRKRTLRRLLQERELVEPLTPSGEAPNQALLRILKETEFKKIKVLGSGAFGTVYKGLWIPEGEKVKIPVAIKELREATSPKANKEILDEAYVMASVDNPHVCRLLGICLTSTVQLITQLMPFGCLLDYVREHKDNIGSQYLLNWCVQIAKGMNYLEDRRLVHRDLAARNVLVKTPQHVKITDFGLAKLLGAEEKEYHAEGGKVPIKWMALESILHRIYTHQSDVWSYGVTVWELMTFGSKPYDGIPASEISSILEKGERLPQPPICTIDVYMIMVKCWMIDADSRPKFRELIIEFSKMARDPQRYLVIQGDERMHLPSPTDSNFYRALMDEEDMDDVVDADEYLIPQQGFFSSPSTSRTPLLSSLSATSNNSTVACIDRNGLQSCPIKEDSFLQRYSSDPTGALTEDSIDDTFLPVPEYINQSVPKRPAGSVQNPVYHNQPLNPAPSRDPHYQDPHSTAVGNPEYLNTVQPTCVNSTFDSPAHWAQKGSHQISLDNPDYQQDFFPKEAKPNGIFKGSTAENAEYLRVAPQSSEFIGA

SMILES	IC50 (EGFR^19del/T790M/C797S) [nM]	IC50 (EGFR^WT) [nM]	IC50 (EGFR^L858R/T790M/C797S) [nM]
CCS(=O)(=O)n1cc2c3ccc(cc31)OCCCn1ccc(n1)-c1cc(c(C(C)C)cc1N1CCOCC1)Nc1nccc-2n1 [FBH-3-48, (Z)-1^1-(ethylsulfonyl)-4^6-isopropyl-4^4-morpholino-1^1H,5^1H-9-oxa-3-aza-1(3,6)-indole-2(4,2)-pyrimidine-5(4,1)-pyrazole-4(1,3)-benzenacyclononaphane]	8.2	> 1000	–
CCS(=O)(=O)n1cc2c3ccc(cc31)OCCCn1ccc(n1)-c1cc(c(C3CC3)cc1N1CCOCC1)Nc1nccc-2n1 [FBH-3-66, (Z)-4^6-cyclopropyl-1^1-(ethylsulfonyl)-4^4-morpholino-1^1H,5^1H-9-oxa-3-aza-1(3,6)-indole-2(4,2)-pyrimidine-5(4,1)-pyrazol-4(1,3)-benzenacyclononaphane]	33	> 1000	–
CCS(=O)(=O)n1cc2c3ccc(cc31)OCCCn1ccc(n1)-c1cc(c(OC(C)C)cc1N1CCOCC1)Nc1nccc-2n1 [FBH-3-84, (Z)-1^1-(ethylsulfonyl)-4^6-isopropoxy-4^4-morpholinyl-1^1H,5^1H-9-oxa-3-aza-1(3,6)-indole-2(4,2)-pyrimidin-5(4,1)-pyrazol-4(1,3)-benzocyclononaphthalene]	267	> 1000	–
CCS(=O)(=O)n1cc2c3ccc(cc31)OCCCn1ccc(n1)-c1cc(c(C(F)(F)F)cc1N1CCOCC1)Nc1nccc-2n1 [FBH-3-92, (Z)-1^1-(ethylsulfonyl)-4^4-morpholinyl-4^6-(trifluoromethyl)-1^1H,5^1H-9-oxa-3-aza-1(3,6)-indole-2(4,2)-pyrimidine-5(4,1)-pyrazole-4(1,3)-benzenacyclononaphane]	–	> 1000	159
CCS(=O)(=O)n1cc2c3ccc(cc31)OCCCn1ccc(n1)-c1cc(c(OC)cc1N1CCOCC1)Nc1nccc-2n1 [FBH-4-6, (E)-1^1-(ethylsulfonyl)-4^6-methoxy-4^4-morpholinyl-1^1H,5^1H-9-oxa-3-aza-1(3,6)-indole-2(4,2)-pyrimidine-5(3,1)-pyrazole-4(1,3)-benzocyclononaphthalene]	–	> 1000	147
CCS(=O)(=O)n1cc2c3ccc(cc31)OCCCn1ccc(n1)-c1cc(c(OC3CC3)cc1N1CCOCC1)Nc1nccc-2n1 [FBH-4-24, (Z)-4^6-cyclopropoxy-1^1-(ethylsulfonyl)-4^4-morpholinyl-1^1H,5^1H-9-oxa-3-aza-1(3,6)-indole-2(4,2)-pyrimidine-5(4,1)-pyrazole-4(1,3)-benzocyclononaphthalene]	–	189	98.5
CCS(=O)(=O)n1cc2c3ccc(cc31)OCCCn1ccc(n1)-c1cc(c(OC(F)(F)F)cc1N1CCOCC1)Nc1nccc-2n1 [FBH-4-48, (Z)-1^1-(ethylsulfonyl)-4^4-morpholinyl-4^6-(trifluoromethoxy)-1^1H,5^1H-9-oxa-3-aza-1(3,6)-indole-2(4,2)-pyrimidine-5(4,1)-pyrazole-4(1,3)-benzocyclononaphthalene]	–	> 1000	135
CCS(=O)(=O)n1cc2c3ccc(cc31)OCCCn1cc(cn1)-c1cc(c(C)cc1N1CCOCC1)Nc1ncc(Cl)c-2n1 [HC916, 2^5-chloro-1^1-ethylsulfonyl-4^6-methyl-4^4-morpholino-1^1H,5^1H-9-oxa-3-aza-1(3,6)-indole-2(4,2)-pyrimidin-5(4,1)-pyrazol-4(1,3)-benzenacyclononaphane]	129	> 1000	167
Cc1cc(N2CCOCC2)c2cc1Nc1ncc(Cl)c(n1)-c1cn(C)c3cc(ccc13)OCCCn1cc-2cn1 [HC8991, 2^5-Chloro-1^1,4^6-dimethyl-4^4-morpholino-1^1H,5^1H-9-oxa-3-aza-1(3,6)-Indole-2(4,2)-Pyrimidin-5(4,1)-Pyrazolol-4(1,3)-benzenacyclononaphane]	6.8	> 1000	–
CCS(=O)(=O)n1cc2c3ccc(cc31)OCCCn1cc(cn1)-c1cc(cc(C3CCCC3)c1N1CCOCC1)Nc1ncc(Cl)c-2n1 [HC9001, 2^5-chloro-4^5-cyclopentyl-1^1-ethylsulfonyl-4^4-morpholino-1^1H,5^1H-9-oxa-3-aza-1(3,6)-indole-2(4,2)-pyrimidin-5(4,1)-pyrazol-4(1,3)-benzenacyclononaphane]	82.3	> 1000	183
C=C(C)c1cc2cc(c1N1CCOCC1)-c1cnn(c1)CCCOc1ccc3c(cn(S(=O)(=O)CC)c3c1)-c1nc(ncc1Cl)N2 [HC9002, 2^5-Chloro-1^1-ethylsulfonyl-4^4-morpholino-4^5-propenyl-1^1H,5^1H-9-oxa-3-aza-1(3,6)-indole-2(4,2)-pyrimidine-5(4,1)-pyrazole-4(1,3)-benzenacyclononaphane]	24.7	> 1000	59
CCS(=O)(=O)n1cc2c3ccc(cc31)OCCCn1cc(cn1)-c1cc(cc(C=C(C)C)c1N1CCOCC1)Nc1ncc(Cl)c-2n1 [HC9003, 2^5-Chloro-1^1-ethylsulfonyl-4^4-morpholino-4^5-2-methylpropan-1-en-1-yl-1^1H,5^1H-9-oxa-3-aza-1(3,6)-indole-2(4,2)-pyrimidine-5(4,1)-pyrazole-4(1,3)-benzenacyclononaphane]	29	> 1000	69.7
CCS(=O)(=O)n1cc2c3ccc(cc31)OCCCn1cc(cn1)-c1cc(cc(/C=C/C(C)(C)C)c1N1CCOCC1)Nc1ncc(Cl)c-2n1 [HC9004]	195	> 1000	384
CCS(=O)(=O)n1cc2c3ccc(cc31)OCC(C)Cn1cc(cn1)-c1cc(ccc1N1CCOCC1)Nc1ncc(Cl)c-2n1 (centres unmarked) [HC9281, 2^5-chloro-1^1-ethylsulfonyl-7-methyl-4^4-morpholino-1^1H, 5^1H-9-oxa-3-aza-1(3,6)-indole-2(4,2)-pyrimidine-5(4,1)-pyrazole-4(1,3)-benzenacyclononaphane]	30.5	> 1000	30.5
CCS(=O)(=O)n1cc2c3ccc(cc31)OCC1(CC1)Cn1cc(cn1)-c1cc(ccc1N1CCOCC1)Nc1ncc(Cl)c-2n1 [HC9282, (Z)-5′-Chloro-1′(Ethylsulfonyl)-4′-morpholino spiro [Cyclopropane-1,7′-9-oxa-3-aza-1(3,6)-indole-2(4,2)-pyrimidine-5(4,1)-pyrazolol-4(1,3)-benzenacyclononaphane]]	45.8	> 1000	45.8
CCS(=O)(=O)n1cc2c3ccc(cc31)OCCCn1cc(cn1)-c1cc(c(OC)cc1N1CCOCC1)Nc1ncc(Cl)c-2n1 [HC9284, 2^5-Chloro-1^1-ethylsulfonyl-4^6-methoxy-4^4-morpholin-1^1H,5^1H-9-oxa-3-aza-1(3,6)-indole-2(4,2)-pyrimidine-5(4,1)-pyrazole-4(1,3)-benzenacyclononaphane]	35.1	154	35.1
CCS(=O)(=O)n1cc2c3ccc(cc31)OCCCn1cc(cn1)-c1cc(c(OC)cc1N1CCN(C)CC1)Nc1nccc-2n1 [HC9592, (Z)-1^1-ethylsulfonyl-4^6-methoxy-4^4-(4-methylpiperazin-1-yl)-1^1H,5^1H-9-oxa-3-aza-1(3,6)-indole-2(4,2)-pyrimidine-5(4,1) pyrazole-4(1,3)-benzenacyclononaphane]	2.9	898	1.4
CCS(=O)(=O)n1cc2c3ccc(cc31)OCCCn1cc(cn1)-c1cc(cc(CC(C)C)c1N1CCOCC1)Nc1ncc(Cl)c-2n1 [HC90032, 2^5-chloro-1^1-ethylsulfonyl-4^4-morpholino-4^5-2-methylpropyl-1^1H,5^1H-9-oxa-3-aza-1(3,6)-indole-2(4,2)-pyrimidin-5(4,1)-pyrazol-4(1,3)-benzenacyclononaphane]	192	> 1000	343
CCS(=O)(=O)n1cc2c3ccc(cc31)OCCCn1cc(cn1)-c1cc(c(OC)cc1N1CCOC(C)C1)Nc1nccc-2n1 (centres unmarked) [WQX-2-43, (Z)-1^1-(Ethylsulfonyl)-4^6-methoxy-4^4-(2-methylmorpholinyl)-1^1H,5^1H-9-oxa-3-aza-1(3,6)-indol-2(4,2)-pyrimidin-5(4,1)-pyrazol-4(1,3)-benzocyclononane]	–	146	57.8
CCS(=O)(=O)n1cc2c3ccc(cc31)OCCCn1cc(cn1)-c1cc(c(OC)cc1N1CCOCC1)Nc1ncc(F)c-2n1 [WQX-2-79, (Z)-1^1-(ethylsulfonyl)-2^5-fluoro-4^6-methoxy-4^4-morpholinyl-1^1H,5^1H-9-oxa-3-aza-1(3,6)-indole-2(4,2)-pyrimidin-5(4,1)-pyrazol-4(1,3)-benzenacyclononaphane]	–	255	102
